Results from publication PMC10707992 (2023).

Test system: FAM-Apt (DNA, aptamer) ATCACGTGTTGTCTCTCTGTGTCTCGTG
Assay: FRET strand-displacement assay (fluorescence recovery)
Conditions: 20 mM Mg-acetate, 100 mM Na-acetate; Tris-acetate pH 8.5, 25 °C; 3'-RTQ1 cDNA CAGAGAGAC not displaced; tested at 1 µM

| SMILES | binding |
| --- | --- |
| C[C@@H]1Cc2c(Cl)cc(C(=O)N[C@@H](Cc3ccccc3)C(=O)O)c(O)c2C(=O)O1 | no |
| C[C@H]1CCCC(=O)CCC/C=C/c2cc(O)cc(O)c2C(=O)O1 | no |
